# In patent US20080269202A1, “Novel 2,3-benzodiazepine derivatives and their use as antipsychotic agents” (Teva Pharmaceutical Industries Ltd., priority 2007, published 2008):
# Counter-ions that a name gives are not always drawn.
# Tested on: apomorphine-induced climbing
# Assay: apomorphine-induced climbing test in mice
# Format: in vivo, CD1 mice
# Conditions: Mus musculus; mice, ip. 30 min before apomorphine 2 mg/kg s.c.; read-out: Climbing ED50 (mg/kg ip.)
# Procedure: Anti-apomorphine effects were investigated in the climbing test in mice mediated through the mesolimbic and stereotypy test in rats mediated through the nigrostriatal system. Conventional antipsychotics antagonize both apomorphine-induced behaviours, while known atypical antipsychotics are weaker against apomorphine stereotypy.
# The climbing test was carried out according to Protais et al. (Protais, P. et al. Psychopharmacologia, 1976, 50, 1.) Stereotyped behavior was induced in food deprived (for 16 hours) male CD1 mice weighing 20-25 g body by apomorphine HCl (SIGMA) in a s.c. dose of 2 mg/kg. Mice were placed individually into cylinders having 12 cm diameter and consisting of vertical bars of 2 mm diameter where apomorphine treated animals tended to adopt a vertical position in contrary to vehicle treated controls. Test substances were applied ip. 30 min before apomorphine.
# 10 and 20 min after apomorphine treatment the climbing behaviour was evaluated by scores of 0-2. 10 mice/group were used. The scores of the two readings were summed individually, meaned and compared to the control. The ED50 values were calculated by Litchfield-Wilcoxon's method (Litchfield Jr. J. T., Wilcoxon, F. J. Pharmacol. Exp. Ther. 1949, 96, 49,).
row,Compound,ED50 [mg/kg]
1,COc1cc2c(cc1OC)C(c1ccc(N)cc1)=NN(c1nccs1)[C@H](C)C2 [Example 112],25

# Tested on: not given
# Assay: not given
# Conditions: not given
row,Compound,melting point [°C]
1,COc1cc2c(cc1OC)C(c1ccc(N)cc1)=NN(c1nccs1)[C@H](C)C2 [Example 112],229 to 230
2,COc1cc2c(cc1OC)C(c1ccc([N+](=O)[O-])c(Cl)c1)=NN(c1ncon1)C(C)C2 (centres unmarked) [Example 45],227 to 230
3,COc1cc2c(cc1OC)C(c1ccc(N)cc1)=NN(c1nc(C)n(C)n1)C(C)C2 (racemic) [Example 166],243 to 246
4,COc1cc2c(cc1OC)C(c1ccc([N+](=O)[O-])cc1)=NN(c1nc(C)c(C)s1)C(C)C2 (centres unmarked) [Example 8],192 to 193
5,COc1cc2c(cc1OC)C(c1ccc(N)cc1)=NN(c1nnc(C)s1)C(C)C2 (racemic) [Example 145],220 to 222
6,COc1cc2c(cc1OC)C(c1ccc(N)cc1)=NN(C(=O)N1CCOCC1)C(C)C2 (racemic) [Example 177],124 to 127
7,CCCNC(=O)N1N=C(c2ccc(N)cc2)c2cc(OC)c(OC)cc2C[C@H]1C,101 to 104
8,COc1cc2c(cc1OC)C(c1ccccc1)=NN(c1ncon1)C(C)C2 (centres unmarked) [Example 51],215 to 216
9,COc1cc2c(cc1OC)C(c1ccc(N)cc1)=NN(c1nncs1)[C@H](C)C2 [Example 108],159 to 160
10,COc1cc2c(cc1OC)C(c1ccc(N)cc1)=NN(c1ncn(C)n1)C(C)C2 (racemic) [Example 165],203 to 205
11,COc1cc2c(cc1OC)C(c1ccc([N+](=O)[O-])c(C)c1)=NN(c1nccs1)C(C)C2 (centres unmarked) [Example 3],145 to 147
12,CNC(=O)N1N=C(c2ccc(OC)c(OC)c2)c2cc(OC)c(OC)cc2CC1C (centres unmarked),185 to 186
13,COc1cc2c(cc1OC)C(c1ccc(F)cc1)=NN(C1=NOCS1)C(C)C2 (centres unmarked) [Example 36],186 to 191
14,COc1cc2c(cc1OC)C(c1ccc([N+](=O)[O-])c(Cl)c1)=NN(c1nccs1)C(C)C2 (centres unmarked) [Example 5],168 to 169
15,COc1cc2c(cc1OC)C(c1ccc(F)cc1)=NN(c1ncon1)C(C)C2 (centres unmarked) [Example 50],217 to 220
16,COc1cc2c(cc1OC)C(c1ccc(N)c(Cl)c1)=NN(C1=NCCS1)[C@H](C)C2 [Example 116],232 to 234
17,CNC(=O)N1N=C(c2ccccc2[N+](=O)[O-])c2cc(OC)c(OC)cc2CC1C (centres unmarked),174 to 176
18,COc1ccc(C2=NN(c3nncs3)C(C)Cc3cc(OC)c(OC)cc32)cc1OC (centres unmarked) [Example 25],173 to 174
19,CCNC(=O)N1N=C(c2ccc([N+](=O)[O-])c(C)c2)c2cc(OC)c(OC)cc2CC1C (centres unmarked) [Example 80],149 to 150
20,COc1cc2c(cc1OC)C(c1ccc([N+](=O)[O-])cc1)=NN(c1nnco1)C(C)C2 (centres unmarked) [Example 29],225 to 229
21,COc1cc2c(cc1OC)C(c1ccc(N)cc1)=NN(c1nc(=O)n(C)s1)C(C)C2 (racemic) [Example 152],260 to 262
22,COc1cc2c(cc1OC)C(c1ccc([N+](=O)[O-])c(Cl)c1)=NN(c1ncon1)C(C)C2 (centres unmarked) [Example 46],206 to 208
23,COc1cc2c(cc1OC)C(c1ccc(N)c(Cl)c1)=NN(c1ncon1)C(C)C2 (racemic) [Example 158],232 to 235
24,CCNC(=O)N1N=C(c2ccc(N)cc2)c2cc(OC)c(OC)cc2CC1C (racemic),169 to 170
25,CNC(=O)N1N=C(c2ccccc2)c2cc(OC)c(OC)cc2CC1C (centres unmarked),86 to 88
26,COc1cc2c(cc1OC)C(c1ccc(N)c(Cl)c1)=NN(c1ncon1)[C@H](C)C2 [Example 107],108 to 110
27,COc1cc2c(cc1OC)C(c1ccc([N+](=O)[O-])cc1)=NN(c1noc(C)n1)C(C)C2 (centres unmarked) [Example 48],197 to 199
28,COc1cc2c(cc1OC)C(c1ccc(N)c(C)c1)=NN(c1noc(C)n1)[C@H](C)C2 [Example 106],105 to 108

row,Compound,melting point [°C]
1,COc1cc2c(cc1OC)C(c1ccc(N)c(C)c1)=NN(c1ncon1)C(C)C2 (racemic) [Example 157],234 to 237
2,COc1cc2c(cc1OC)C(c1ccc(N)cc1)=NN(c1ncon1)C(C)C2 (racemic) [Example 155],227 to 229
3,CONC(=O)N1N=C(c2ccc(N)cc2)c2cc(OC)c(OC)cc2CC1C (racemic) [Example 179],173 to 174
4,CNC(=O)N1N=C(c2ccc(F)cc2)c2cc(OC)c(OC)cc2CC1C (centres unmarked),80 to 83
5,COc1cc2c(cc1OC)C(c1ccc(N)cc1)=NN(c1nc(C)c(C)s1)C(C)C2 (racemic) [Example 139],121 to 124
6,COc1cc2c(cc1OC)C(c1ccc(N)cc1)=NN(c1nnc(C)o1)C(C)C2 (racemic) [Example 151],209 to 211
7,COc1cc2c(cc1OC)C(c1ccc(N)cc1)=NN(c1ncnn1C)C(C)C2 (racemic) [Example 164],160 to 162
8,COc1cc2c(cc1OC)C(c1ccc(N)c(C)c1)=NN(C(=O)NC1CC1)[C@H](C)C2,112 to 114
9,COc1cc2c(cc1OC)C(c1ccc(N)c(Cl)c1)=NN(c1nncs1)[C@H](C)C2 [Example 111],129 to 134
10,COc1cc2c(cc1OC)C(c1ccc(N)cc1)=NN(C(=O)NC(C)C)C(C)C2 (racemic),109 to 111
11,CCNC(=O)N1N=C(c2ccc([N+](=O)[O-])cc2)c2cc(OC)c(OC)cc2CC1C (centres unmarked) [79],186 to 189
12,COc1cc2c(cc1OC)C(c1ccc(N)cc1)=NN(c1ncon1)[C@H](C)C2 [Example 103],239 to 242
13,CCOc1cc2c(cc1OCC)C(c1ccc([N+](=O)[O-])cc1)=NN(c1ncon1)C(C)C2 (centres unmarked) [Example 52],158 to 162
14,COc1cc2c(cc1OC)C(c1ccc(NC(C)=O)c(C)c1)=NN(c1nccs1)[C@H](C)C2 [Example 185],229 to 231
15,COc1cc2c(cc1OC)C(c1ccc(N)cc1)=NN(c1nnco1)C(C)C2 (racemic) [Example 150],100 to 105
16,CNC(=O)N1N=C(c2ccc(N)cc2)c2cc(OC)c(OC)cc2C[C@@H]1C,130 to 134
17,COc1cc2c(cc1OC)C(c1ccc([N+](=O)[O-])cc1)=NN(C(=O)N(C)C)C(C)C2 (centres unmarked),92 to 96
18,COc1cc2c(cc1OC)C(c1ccc([N+](=O)[O-])c(C)c1)=NN(c1nccs1)C(C)C2 (centres unmarked) [Example 4],172 to 174
19,CCOc1cc2c(cc1OCC)C(c1ccc([N+](=O)[O-])cc1)=NN(c1nncs1)C(C)C2 (centres unmarked) [Example 26],172 to 174
20,COc1cc2c(cc1OC)C(c1ccc([N+](=O)[O-])c(Cl)c1)=NN(c1nncs1)C(C)C2 (centres unmarked) [Example 22],203 to 206
21,COc1cc2c(cc1OC)C(c1ccc([N+](=O)[O-])cc1)=NN(c1ncon1)C(C)C2 (centres unmarked) [Example 41],190 to 192
22,CCNC(=O)N1N=C(c2ccc(N)cc2)c2cc(OC)c(OC)cc2C[C@H]1C,122 to 124
23,CCCCNC(=O)N1N=C(c2ccc(N)cc2)c2cc(OC)c(OC)cc2CC1C (racemic),204 to 207
24,COc1cc2c(cc1OC)C(c1cccc(Cl)c1)=NN(c1nc(C)c(C)s1)C(C)C2 (centres unmarked) (as salt: HCl) [Example 11],174 to 176
25,CNC(=O)N1N=C(c2cc(C)c(N)c(C)c2)c2cc(OC)c(OC)cc2C[C@H]1C,110 to 113
26,COc1cc2c(cc1OC)C(c1ccc(N)c(Cl)c1)=NN(c1nncs1)C(C)C2 (racemic) [Example 148],125 to 130
27,COc1cc2c(cc1OC)C(c1ccc([N+](=O)[O-])c(C)c1)=NN(C1=NOCS1)C(C)C2 (centres unmarked) [Example 35],180 to 182
